What was measured:
Format in all cases: functional, tissue-based
[1] = tested on: Right cardiac atrium; assay: Negative […] activity in electrically-paced Cavia porcellus (guinea pig) right atrium assessed as effect on force measured after 60 min by isometric transducer analysis in presence of benextramine/4-DAMP mustard; settings: 1 h
[2] = tested on: Right cardiac atrium; assay: Negative […] activity in electrically-paced Cavia porcellus (guinea pig) right atrium assessed as effect on force measured after 60 min by isometric transducer analysis in absence of benextramine/4-DAMP mustard; settings: 1 h
[3] = tested on: Left cardiac atrium; assay: Negative ionotropic activity in electrically-paced Cavia porcellus (guinea pig) left atrium measured after 60 min by isometric transducer analysis in presence of benextramine/4-DAMP mustard; settings: 1 h
[4] = tested on: Left cardiac atrium; assay: Negative ionotropic activity in electrically-paced Cavia porcellus (guinea pig) left atrium measured after 60 min by isometric transducer analysis in absence of benextramine/4-DAMP mustard; settings: 1 h
[5] = tested on: Left cardiac atrium; assay: Negative ionotropic activity in electrically-paced Cavia porcellus (guinea pig) left atrium measured immediately by isometric transducer analysis in absence of benzalkonium/prazosin
[6] = tested on: Right cardiac atrium; assay: Negative ionotropic activity in electrically-paced Cavia porcellus (guinea pig) right atrium assessed as effect on force measured immediately by isometric transducer analysis in absence of benzalkonium/prazosin

EC50 [1] [nM] | EC50 [2] [nM] | EC50 [3] [nM] | EC50 [4] [nM] | Compound | EC50 [5] [nM] | EC50 [6] [nM]
0.282 | 0.417 | 0.363 | 0.417 | CCCCCCCCCCCCNC(=O)[C@@H](N)CCCCN [N-DODECYL LYSINE AMIDE] | – | –
– | – | – | – | C#CCOC(=O)C1=CCCN(C)C1 [ARECAIDINE PROPARGYL ESTER] | 4.57 | 1.7

From ChEMBL document CHEMBL3044753, “Polyamines May Modulate Both G Protein-Coupled Receptors and G Proteins” (Med Chem Res, 2004)
